{"source": "ChEMBL document CHEMBL1201862", "about": "“PubChem BioAssay data set” (2004)", "assay_in_all_cases": "NCI tumour cell line growth inhibition, 48 h", "key": {"MCF7": {"system": "MCF7"}, "MDA-MB-231": {"system": "MDA-MB-231"}, "SF-539": {"system": "SF-539"}, "SW-620": {"system": "SW-620"}, "NCI-H522": {"system": "NCI-H522"}, "IGROV-1": {"system": "IGROV-1"}, "NCI-H460": {"system": "NCI-H460"}, "SN12C": {"system": "SN12C"}, "SK-MEL-2": {"system": "SK-MEL-2"}, "DU-145": {"system": "DU-145"}, "OVCAR-5": {"system": "OVCAR-5"}, "PC-3": {"system": "PC-3"}, "HL-60": {"system": "HL-60"}, "U-251": {"system": "U-251"}, "NCI-H23": {"system": "NCI-H23"}, "A549": {"system": "A549"}, "TK-10": {"system": "TK-10"}, "T47D": {"system": "T47D"}, "SK-MEL-5": {"system": "SK-MEL-5"}, "HCC 2998": {"system": "HCC 2998"}}, "note": "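Five compound concentrations were applied to cells in 96-well plates for 48 hours; endpoints were derived by simple linear interpolation of the resulting dose-response curve. Abbreviation: GI50, concentration required for 50% inhibition of growth.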 Active and inactive are the calls of the source. Rule as the data show it: active = GI50 up to about 1.1 µM and inactive = higher.", "data": [{"smiles": "C#CCn1c(=O)c(I)cn(/C(=C/C(=O)OCC)C(=O)OCC)c1=O", "values": [{"measurement": "GI50", "setting": "MCF7", "result": "2.12 µM (inactive)"}, {"measurement": "GI50", "setting": "MDA-MB-231", "result": "15.2 µM (inactive)"}, {"measurement": "GI50", "setting": "SF-539", "result": "7.21 µM (inactive)"}, {"measurement": "GI50", "setting": "SW-620", "result": "1.18 µM (inactive)"}, {"measurement": "GI50", "setting": "NCI-H522", "result": "0.649 µM (active)"}, {"measurement": "GI50", "setting": "IGROV-1", "result": "15.7 µM (inactive)"}, {"measurement": "GI50", "setting": "NCI-H460", "result": "23.4 µM (inactive)"}, {"measurement": "GI50", "setting": "SN12C", "result": "15.9 µM (inactive)"}, {"measurement": "GI50", "setting": "SK-MEL-2", "result": "15.5 µM (inactive)"}, {"measurement": "GI50", "setting": "DU-145", "result": "10 µM (inactive)"}, {"measurement": "GI50", "setting": "OVCAR-5", "result": "16.2 µM (inactive)"}, {"measurement": "GI50", "setting": "PC-3", "result": "5.06 µM (inactive)"}, {"measurement": "GI50", "setting": "HL-60", "result": "1.64 µM (inactive)"}, {"measurement": "GI50", "setting": "U-251", "result": "16.6 µM (inactive)"}, {"measurement": "GI50", "setting": "NCI-H23", "result": "15.3 µM (inactive)"}, {"measurement": "GI50", "setting": "A549", "result": "18 µM (inactive)"}, {"measurement": "GI50", "setting": "TK-10", "result": "0.3 µM (active)"}, {"measurement": "GI50", "setting": "T47D", "result": "0.818 µM (active)"}]}, {"smiles": "CN(CCN1C(=O)c2cccc3cccc(c23)C1=O)CCN1C(=O)c2cccc3cccc(c23)C1=O", "values": [{"measurement": "GI50", "setting": "MCF7", "result": "84.3 µM (inactive)"}, {"measurement": "GI50", "setting": "MDA-MB-231", "result": "13.7 µM (inactive)"}, {"measurement": "GI50", "setting": "SF-539", "result": "32.7 µM (inactive)"}, {"measurement": "GI50", "setting": "NCI-H522", "result": "13.2 µM (inactive)"}, {"measurement": "GI50", "setting": "IGROV-1", "result": "17.4 µM (inactive)"}, {"measurement": "GI50", "setting": "NCI-H460", "result": "16.3 µM (inactive)"}, {"measurement": "GI50", "setting": "SN12C", "result": "76 µM (inactive)"}, {"measurement": "GI50", "setting": "SK-MEL-2", "result": "45.7 µM (inactive)"}, {"measurement": "GI50", "setting": "DU-145", "result": "> 100 µM (inactive)"}, {"measurement": "GI50", "setting": "OVCAR-5", "result": "> 100 µM (inactive)"}, {"measurement": "GI50", "setting": "SK-MEL-5", "result": "> 100 µM (inactive)"}, {"measurement": "GI50", "setting": "PC-3", "result": "> 100 µM (inactive)"}, {"measurement": "GI50", "setting": "HL-60", "result": "68.7 µM (inactive)"}, {"measurement": "GI50", "setting": "U-251", "result": "12.2 µM (inactive)"}, {"measurement": "GI50", "setting": "NCI-H23", "result": "16.9 µM (inactive)"}, {"measurement": "GI50", "setting": "A549", "result": "27.6 µM (inactive)"}, {"measurement": "GI50", "setting": "TK-10", "result": "14.1 µM (inactive)"}, {"measurement": "GI50", "setting": "T47D", "result": "1.5 µM (inactive)"}]}, {"smiles": "COC(=O)CNC(=O)C(Cc1ccccc1)NC(=O)c1ccc(-c2ccc(Cl)cc2Cl)o1", "note": "(configuration not stated)", "values": [{"measurement": "GI50", "setting": "MCF7", "result": "17.8 µM (inactive)"}, {"measurement": "GI50", "setting": "MDA-MB-231", "result": "19 µM (inactive)"}, {"measurement": "GI50", "setting": "SF-539", "result": "36.3 µM (inactive)"}, {"measurement": "GI50", "setting": "SW-620", "result": "34.2 µM (inactive)"}, {"measurement": "GI50", "setting": "NCI-H522", "result": "13.4 µM (inactive)"}, {"measurement": "GI50", "setting": "IGROV-1", "result": "18.7 µM (inactive)"}, {"measurement": "GI50", "setting": "NCI-H460", "result": "15.2 µM (inactive)"}, {"measurement": "GI50", "setting": "SN12C", "result": "26.3 µM (inactive)"}, {"measurement": "GI50", "setting": "SK-MEL-2", "result": "28.3 µM (inactive)"}, {"measurement": "GI50", "setting": "DU-145", "result": "37.6 µM (inactive)"}, {"measurement": "GI50", "setting": "OVCAR-5", "result": "28.4 µM (inactive)"}, {"measurement": "GI50", "setting": "SK-MEL-5", "result": "31.6 µM (inactive)"}, {"measurement": "GI50", "setting": "PC-3", "result": "21.1 µM (inactive)"}, {"measurement": "GI50", "setting": "HL-60", "result": "12.2 µM (inactive)"}, {"measurement": "GI50", "setting": "U-251", "result": "28.5 µM (inactive)"}, {"measurement": "GI50", "setting": "NCI-H23", "result": "23.7 µM (inactive)"}, {"measurement": "GI50", "setting": "A549", "result": "25 µM (inactive)"}, {"measurement": "GI50", "setting": "TK-10", "result": "24.7 µM (inactive)"}, {"measurement": "GI50", "setting": "T47D", "result": "20.7 µM (inactive)"}]}, {"smiles": "CC1C2CC(CC2N)C1(C)C", "note": "(configuration not stated)", "values": [{"measurement": "GI50", "setting": "MCF7", "result": "> 100 µM (inactive)"}, {"measurement": "GI50", "setting": "MDA-MB-231", "result": "> 100 µM (inactive)"}, {"measurement": "GI50", "setting": "SF-539", "result": "> 100 µM (inactive)"}, {"measurement": "GI50", "setting": "SW-620", "result": "> 100 µM (inactive)"}, {"measurement": "GI50", "setting": "NCI-H522", "result": "> 100 µM (inactive)"}, {"measurement": "GI50", "setting": "IGROV-1", "result": "> 100 µM (inactive)"}, {"measurement": "GI50", "setting": "NCI-H460", "result": "> 100 µM (inactive)"}, {"measurement": "GI50", "setting": "SN12C", "result": "> 100 µM (inactive)"}, {"measurement": "GI50", "setting": "DU-145", "result": "> 100 µM (inactive)"}, {"measurement": "GI50", "setting": "HCC 2998", "result": "> 100 µM (inactive)"}, {"measurement": "GI50", "setting": "OVCAR-5", "result": "> 100 µM (inactive)"}, {"measurement": "GI50", "setting": "SK-MEL-5", "result": "> 100 µM (inactive)"}, {"measurement": "GI50", "setting": "PC-3", "result": "> 100 µM (inactive)"}, {"measurement": "GI50", "setting": "HL-60", "result": "> 100 µM (inactive)"}, {"measurement": "GI50", "setting": "U-251", "result": "> 100 µM (inactive)"}, {"measurement": "GI50", "setting": "NCI-H23", "result": "> 100 µM (inactive)"}, {"measurement": "GI50", "setting": "A549", "result": "> 100 µM (inactive)"}, {"measurement": "GI50", "setting": "TK-10", "result": "> 100 µM (inactive)"}, {"measurement": "GI50", "setting": "T47D", "result": "> 100 µM (inactive)"}]}, {"smiles": "CCOC(=O)c1c(O)cn2c1[nH]c1cccc3cccc2c31", "values": [{"measurement": "GI50", "setting": "MCF7", "result": "49.2 µM (inactive)"}, {"measurement": "GI50", "setting": "MDA-MB-231", "result": "> 100 µM (inactive)"}, {"measurement": "GI50", "setting": "SW-620", "result": "> 100 µM (inactive)"}, {"measurement": "GI50", "setting": "NCI-H522", "result": "46.5 µM (inactive)"}, {"measurement": "GI50", "setting": "IGROV-1", "result": "62.2 µM (inactive)"}, {"measurement": "GI50", "setting": "NCI-H460", "result": "92.7 µM (inactive)"}, {"measurement": "GI50", "setting": "SN12C", "result": "> 100 µM (inactive)"}, {"measurement": "GI50", "setting": "SK-MEL-2", "result": "> 100 µM (inactive)"}, {"measurement": "GI50", "setting": "DU-145", "result": "71.6 µM (inactive)"}, {"measurement": "GI50", "setting": "HCC 2998", "result": "64.7 µM (inactive)"}, {"measurement": "GI50", "setting": "OVCAR-5", "result": "> 100 µM (inactive)"}, {"measurement": "GI50", "setting": "SK-MEL-5", "result": "> 100 µM (inactive)"}, {"measurement": "GI50", "setting": "PC-3", "result": "> 100 µM (inactive)"}, {"measurement": "GI50", "setting": "HL-60", "result": "57.3 µM (inactive)"}, {"measurement": "GI50", "setting": "U-251", "result": "63.4 µM (inactive)"}, {"measurement": "GI50", "setting": "NCI-H23", "result": "62.4 µM (inactive)"}, {"measurement": "GI50", "setting": "A549", "result": "> 100 µM (inactive)"}, {"measurement": "GI50", "setting": "TK-10", "result": "> 100 µM (inactive)"}, {"measurement": "GI50", "setting": "T47D", "result": "50.8 µM (inactive)"}]}, {"smiles": "CCC/C(Cl)=N/OC(=O)Nc1cccc(F)c1", "values": [{"measurement": "GI50", "setting": "MCF7", "result": "2.77 µM (inactive)"}, {"measurement": "GI50", "setting": "MDA-MB-231", "result": "13.1 µM (inactive)"}, {"measurement": "GI50", "setting": "SW-620", "result": "1.8 µM (inactive)"}, {"measurement": "GI50", "setting": "NCI-H522", "result": "0.309 µM (active)"}, {"measurement": "GI50", "setting": "IGROV-1", "result": "13.2 µM (inactive)"}, {"measurement": "GI50", "setting": "NCI-H460", "result": "19 µM (inactive)"}, {"measurement": "GI50", "setting": "SN12C", "result": "6.75 µM (inactive)"}, {"measurement": "GI50", "setting": "SK-MEL-2", "result": "18.7 µM (inactive)"}, {"measurement": "GI50", "setting": "DU-145", "result": "17.5 µM (inactive)"}, {"measurement": "GI50", "setting": "HCC 2998", "result": "15.6 µM (inactive)"}, {"measurement": "GI50", "setting": "OVCAR-5", "result": "19.1 µM (inactive)"}, {"measurement": "GI50", "setting": "SK-MEL-5", "result": "5.79 µM (inactive)"}, {"measurement": "GI50", "setting": "PC-3", "result": "17 µM (inactive)"}, {"measurement": "GI50", "setting": "HL-60", "result": "1.28 µM (inactive)"}, {"measurement": "GI50", "setting": "U-251", "result": "17.3 µM (inactive)"}, {"measurement": "GI50", "setting": "NCI-H23", "result": "16.7 µM (inactive)"}, {"measurement": "GI50", "setting": "A549", "result": "19.1 µM (inactive)"}, {"measurement": "GI50", "setting": "TK-10", "result": "2.38 µM (inactive)"}, {"measurement": "GI50", "setting": "T47D", "result": "2.71 µM (inactive)"}]}]}
